# Assays:
# [1] = test system: E. coli; test: Growth inhibition of E. coli upon induction of endogenous Plectasin expression (suicide expression system); format: cell-based
# Method: In order to evaluate whether E. coli was growth inhibited in liquid media upon induction of endogenous Plectasin expression, the following experiment was conducted as disclosed in the examples of international patent application WO 00/73433. Briefly, fresh overnight cultures of cells containing either pDRS-18-plectasin, pDR-18-plectasin, pHH or pHHA plasmid were diluted 300-fold into 150 micro liter of LB or LB containing 0.1% arabinose in a microtiter plate and incubated at 37 degrees Celsius with vigorous shaking. The growth curve was monitored by measuring OD450 at regular intervals using an ELISA reader.
# [2] = test system: Bacillus subtilis; test: Antimicrobial activity by radial diffusion assay; format: cell-based
# Method: A modified version of a previously published protocol has been applied in the detection of antimicrobial activity (Lehrer et al., (1991) Ultrasensitive assays for endogenous antimicrobial polypeptides J Immunol Methods 137: 167-173). Target bacteria (10^6 colony forming units (CFU)) were added to 10 ml of underlay agarose (1% low electro-endosmosis agarose, 0.03% Trypticase soy broth, 10 mM sodium phosphat, pH 7.4, 37 degrees Celsius). Suspension was solidified on an INTEGRID Petri Dish (Becton Dickinson Labware, N.J.). A 3 mm Gel Puncher was used to make holes in the underlay agarose (Amersham Pharmacia Biotech, Sweden). Samples were added to the holes and incubated at 37 degrees Celsius, 3 hours. An overlay was poured on top and the plate was incubated overnight (LB media, 7.5% Agar). Antimicrobial activity was seen as bacterial clearing zones around the wells. Living cells was counterstained by adding 10 ml, 0.2 mM MTT (3-(4,5-Dimethylthiazol-2-yl)-2,5-diphenyltetrazolium bromide Thiazolyl blue). All standard protocols has been described elsewhere (Sambrook, Fritsch, and Maniatis, 1989).
# To evaluate the anti-microbial activity of Plectasin, fermentation broths of recombinant Aspergillus oryzae were applied in 2-fold serial dilutions in a radial diffusion assay (described above). […]
# The supernatants described above were analyzed in a radial diffusion assay as described in Example 5. […]
substance,measurement,setting,value
Plectasin,inhibition of cell growth,[1]; Plectasin directed to the periplasm,41%
same,effect on cell growth,[1]; Plectasin expressed in the cytoplasm,did not affect cell growth
same,increase in antimicrobial activity of the peptide,[2]; produced in E. coli Origami-DE3 (inclusion bodies) versus the earlier E. coli host,5-10 fold
same,largest clearing zone,[2]; undiluted fermentation broth of recombinant Aspergillus oryzae,15 mm

# — patent US7972814B2, “Antimicrobial polypeptides from Pseudoplectania nigrella” (Novozymes Adenivro Biotech A/S, priority 2001, dated 2011)
